Measured values taken from ChEMBL document CHEMBL1129833, “N-Phthalimidoalkyl derivatives of 2-carbomethoxy-3-(4-iodophenyl)tropane (-CIT): Brain monoamine transporter affinity” (Bioorg Med Chem Lett, 1997).

Assays:
Assay type in all cases: tissue-based
[1] = biological target: Sodium-dependent dopamine transporter (Rattus norvegicus, UniProt P23977); assay: In vitro binding affinity of compound for Dopamine transporter with [3H]- GBR-12935 as radioligand in corpus striatum tissue from rat forebrain
[2] = biological target: Norepinephrine transporter (Rattus norvegicus, UniProt Q9WTR4); assay: In vitro binding affinity of compound for Norepinephrine (NE) transporter with [3H]- […] as radioligand in corpus striatum tissue from rat forebrain
[3] = biological target: Sodium-dependent serotonin transporter (Rattus norvegicus, UniProt P31652); assay: In vitro binding affinity of compound for Serotonin transporter with [3H]- paroxetine as radioligand in corpus striatum tissue from rat forebrain
Sequence of Sodium-dependent serotonin transporter (P31652 whole entry): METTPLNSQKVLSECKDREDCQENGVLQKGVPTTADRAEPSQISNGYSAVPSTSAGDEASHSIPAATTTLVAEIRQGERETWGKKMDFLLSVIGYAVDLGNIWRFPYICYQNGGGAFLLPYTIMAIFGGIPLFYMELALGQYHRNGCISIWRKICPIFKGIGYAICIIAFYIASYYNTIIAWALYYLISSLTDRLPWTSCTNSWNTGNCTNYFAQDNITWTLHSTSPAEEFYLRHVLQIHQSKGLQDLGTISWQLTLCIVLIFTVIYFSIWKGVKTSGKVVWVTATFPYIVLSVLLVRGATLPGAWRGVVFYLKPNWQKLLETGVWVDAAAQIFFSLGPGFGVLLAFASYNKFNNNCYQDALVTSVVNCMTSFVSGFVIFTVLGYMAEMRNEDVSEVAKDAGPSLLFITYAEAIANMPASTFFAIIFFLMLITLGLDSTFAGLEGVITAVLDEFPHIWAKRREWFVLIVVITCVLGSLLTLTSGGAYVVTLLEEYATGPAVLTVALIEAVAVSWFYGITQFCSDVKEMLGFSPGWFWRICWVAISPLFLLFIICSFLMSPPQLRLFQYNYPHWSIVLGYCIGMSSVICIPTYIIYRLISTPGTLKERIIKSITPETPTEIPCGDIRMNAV

Sequence of Sodium-dependent dopamine transporter (P23977 whole entry): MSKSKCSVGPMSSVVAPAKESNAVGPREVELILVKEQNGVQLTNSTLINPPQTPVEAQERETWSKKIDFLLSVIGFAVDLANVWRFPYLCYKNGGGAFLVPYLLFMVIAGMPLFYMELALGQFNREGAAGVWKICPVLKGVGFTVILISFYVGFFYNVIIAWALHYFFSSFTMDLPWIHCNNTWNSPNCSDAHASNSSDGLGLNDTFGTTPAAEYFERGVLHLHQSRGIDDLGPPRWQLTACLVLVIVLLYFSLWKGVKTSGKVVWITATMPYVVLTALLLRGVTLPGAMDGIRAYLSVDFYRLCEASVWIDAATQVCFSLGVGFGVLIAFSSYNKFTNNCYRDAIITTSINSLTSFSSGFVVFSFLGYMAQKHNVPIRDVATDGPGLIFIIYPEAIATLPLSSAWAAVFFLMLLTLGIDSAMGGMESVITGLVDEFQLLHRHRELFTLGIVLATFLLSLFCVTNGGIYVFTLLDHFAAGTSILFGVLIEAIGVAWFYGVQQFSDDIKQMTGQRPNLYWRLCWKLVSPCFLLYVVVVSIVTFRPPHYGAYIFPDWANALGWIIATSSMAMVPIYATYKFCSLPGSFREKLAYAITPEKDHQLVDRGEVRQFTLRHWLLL
Sequence of Norepinephrine transporter (Q9WTR4 whole entry): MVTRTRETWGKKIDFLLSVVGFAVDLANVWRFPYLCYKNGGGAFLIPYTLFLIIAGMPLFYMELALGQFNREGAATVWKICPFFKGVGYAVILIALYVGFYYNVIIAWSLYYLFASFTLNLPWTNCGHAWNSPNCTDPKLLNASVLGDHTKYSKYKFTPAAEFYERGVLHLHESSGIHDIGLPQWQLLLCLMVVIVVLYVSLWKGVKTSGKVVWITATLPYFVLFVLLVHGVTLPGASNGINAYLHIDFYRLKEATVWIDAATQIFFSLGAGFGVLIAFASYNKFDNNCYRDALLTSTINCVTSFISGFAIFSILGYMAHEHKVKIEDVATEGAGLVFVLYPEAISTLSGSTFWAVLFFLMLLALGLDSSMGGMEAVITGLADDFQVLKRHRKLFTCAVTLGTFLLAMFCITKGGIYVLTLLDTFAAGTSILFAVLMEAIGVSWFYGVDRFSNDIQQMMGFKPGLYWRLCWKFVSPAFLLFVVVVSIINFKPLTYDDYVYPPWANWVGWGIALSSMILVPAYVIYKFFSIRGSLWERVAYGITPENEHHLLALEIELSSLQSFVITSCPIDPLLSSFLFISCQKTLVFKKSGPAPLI

| Structure (SMILES) | Ki [1] [nM] | Ki [2] [nM] | Ki [3] [nM] |
| --- | --- | --- | --- |
| COC(=O)C1C2CC[C@H](C[C@@H]1c1ccc(I)cc1)N2CCCCCN1C(=O)c2ccccc2C1=O (stereo partly drawn) | 2.4 | 60 | 0.34 |
| COC(=O)C1C2CC[C@H](C[C@@H]1c1ccc(I)cc1)N2C (stereo partly drawn) | – | – | 0.44 |
| COC(=O)C1C2CC[C@@H](C[C@@H]1c1ccc(I)cc1)N2CCCCN1C(=O)c2ccccc2C1=O (stereo partly drawn) | 2.38 | 190 | 0.21 |
| COC(=O)C1C2CC[C@H](C[C@@H]1c1ccc(I)cc1)N2CCCCCCCCN1C(=O)c2ccccc2C1=O (stereo partly drawn) | 2.98 | 75 | 0.2 |
| COC(=O)C1C2CC[C@H](C[C@@H]1c1ccc(I)cc1)N2CCN1C(=O)c2ccccc2C1=O (stereo partly drawn) | 4.23 | 441 | 0.84 |
